Data on 1 compound can be found in US12599597B2, “Substituted N-benzhydrylacetamide inhibitors of jumanji domain histone demethylases for the treatment of cancer” (University of Kentucky Research Foundation, priority 2020, dated 2026).

Test [1] deals with histone methylation in HEK293T cells. Nature of the test: Histone methylation in HEK293T cells. The test is classed as cell-based. Particulars: 5 μM. How it is done:
To determine if 58B1 regulates Wnt signaling through epigenetic mechanism, the effects of 58B1 on histone methylation were analyzed. […] Similar results were found in LS174T colon cancer cells. H3K9 and H3K27 methylations are negative regulators of transcription. Without wishing to be bound by theory, it is believed that 58B1 inhibited Wnt signaling by increasing H3K9 or H3K27 methylation on Wnt target gene promotors.

In the next test the target is Jarid1B (KDM5B) (Homo sapiens, UniProt Q9UGL1). Nature of the test: Histone demethylase assay, purified enzyme panel. The test is classed as biochemical. Particulars: 58B1, 10 μM. The source says: (§1) Histone Demethylase Assay
(§2) To further examine the effects of 58B1 on histone demethylase, we screened a panel of purified histone demethylases was screened.

In a further test the target is T1, FBXL10 (KDM2B) (Homo sapiens, UniProt Q8NHM5).
T1 sequence (Q8NHM5 1-1336): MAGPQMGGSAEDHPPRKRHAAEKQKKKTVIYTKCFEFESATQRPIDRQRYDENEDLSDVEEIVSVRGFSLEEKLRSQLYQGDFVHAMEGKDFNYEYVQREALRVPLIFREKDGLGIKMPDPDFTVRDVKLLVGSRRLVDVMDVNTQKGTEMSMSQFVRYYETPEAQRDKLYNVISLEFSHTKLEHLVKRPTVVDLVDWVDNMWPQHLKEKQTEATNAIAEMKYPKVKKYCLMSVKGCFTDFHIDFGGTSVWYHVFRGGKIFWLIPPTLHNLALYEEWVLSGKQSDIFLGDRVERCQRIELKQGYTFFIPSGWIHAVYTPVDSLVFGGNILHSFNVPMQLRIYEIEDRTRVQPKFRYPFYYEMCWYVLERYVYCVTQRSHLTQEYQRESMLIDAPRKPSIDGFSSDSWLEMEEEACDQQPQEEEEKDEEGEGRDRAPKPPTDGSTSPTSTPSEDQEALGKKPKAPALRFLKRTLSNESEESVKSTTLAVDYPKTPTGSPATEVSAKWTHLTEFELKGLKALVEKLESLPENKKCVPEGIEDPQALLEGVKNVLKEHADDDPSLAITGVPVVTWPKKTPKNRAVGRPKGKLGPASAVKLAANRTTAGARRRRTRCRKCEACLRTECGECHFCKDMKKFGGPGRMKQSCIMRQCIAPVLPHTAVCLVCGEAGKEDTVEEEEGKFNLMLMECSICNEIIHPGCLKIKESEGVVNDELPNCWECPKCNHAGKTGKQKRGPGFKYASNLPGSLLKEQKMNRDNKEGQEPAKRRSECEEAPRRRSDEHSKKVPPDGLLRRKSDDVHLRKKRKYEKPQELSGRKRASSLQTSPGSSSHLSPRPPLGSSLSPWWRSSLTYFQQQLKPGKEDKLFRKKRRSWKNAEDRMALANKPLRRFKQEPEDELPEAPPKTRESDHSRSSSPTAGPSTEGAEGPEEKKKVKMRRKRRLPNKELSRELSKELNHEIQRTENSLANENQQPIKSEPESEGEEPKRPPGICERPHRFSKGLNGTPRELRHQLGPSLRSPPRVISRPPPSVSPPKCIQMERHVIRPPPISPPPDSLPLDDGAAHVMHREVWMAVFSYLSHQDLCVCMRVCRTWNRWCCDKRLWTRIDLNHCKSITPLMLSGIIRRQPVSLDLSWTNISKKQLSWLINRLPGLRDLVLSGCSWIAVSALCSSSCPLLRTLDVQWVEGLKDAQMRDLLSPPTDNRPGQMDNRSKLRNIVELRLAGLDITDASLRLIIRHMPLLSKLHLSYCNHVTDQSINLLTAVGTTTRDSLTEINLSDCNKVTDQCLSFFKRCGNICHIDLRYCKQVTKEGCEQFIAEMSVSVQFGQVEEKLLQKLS
Nature of the test: Histone demethylase assay, purified enzyme panel. As to conditions: 58B1, 10 μM. The test is classed as biochemical.
Source text: as §1, §2

The next test has as its system SW620. In words: Colon cancer cell proliferation. Particulars: SW620 (APC mutation); 5d, Vi-Cell viability assay. The test is classed as cell-based. The source says: FIGS. 5A-B show an image and graph illustrating validation of CBA-1. (A) CBA-1 repressed Wnt targets in LS174T CRC cells. (B) CBA-1 inhibited CRC cell proliferation (5d, Vi-Cell viability assay).
(§3) Identification of a CBA-1 as a novel Wnt inhibitor. The present inventors routinely use TOPFlash reporter assay for Wnt inhibitor screening. To mimic the constitutively active Wnt signaling found in CRC cells, Wnt signaling was activated by inhibiting GSK3 and stabilizing β-catenin. From screening in house small-molecule libraries, CBA-1 (FIG. 4) was identified that inhibited Wnt signaling in TOPFlash reporter assay. To validate the screening results, CBA-1 was tested in CRC cells.

Another test deals with Wnt signaling. Nature of the test: TOPFlash (Wnt) reporter assay in stable HEK293T cell line. The test is classed as cell-based.
Source text: Wnt signaling is a key target for multiple human cancers, including but not limited to colon cancer, liver cancer, and lung cancer. To identify novel Wnt regulators by high throughput screening, a stable HEK293T cell line containing the TOPFlash reporter was established. Since β-catenin is often activated by mutations in the Wnt pathway, it is important to inhibit Wnt signaling downstream of β-catenin activity. Therefore, the screen was specifically designed to identify Wnt inhibitors that target events downstream of β-catenin. The Wnt signaling was activated by treating cells with lithium chloride to inhibit GSK3 and to stabilize β-catenin, mimicking the constitutively active Wnt signaling in cancer cells. Through this screen, a family of novel Wnt inhibitors that inhibited Wnt signaling at a 0.5-10 μM concentrations (Table 1) was identified.
After 6 h, the cells were treated with 25 mM LiCl to activate Wnt signaling. The inhibition ratio of each compound was determined (Table 1).
For the SAR studies, 58B1 (VMS-7-133) was re-synthesized. Additionally, SD70, a commercial KDM4 inhibitor, was both purchased and re-synthesized (VMS-7-175). […] VMS-7-195 is a biotinylated analog of 58B1. […] Specific KDM inhibitors may be used to target specific KDMs, such as KDM3A, which is highly expressed in many human cancers.
as §3

Test [2] concerns histone methylation in CRC cells. Nature of the test: Histone methylation in CRC cells. The test is classed as cell-based. The text has this:
CBA-1 increased repressive histone methylation on Wnt target genes. The present inventors reported that mutations in APC or β-catenin N-terminal phosphorylation sites prevented β-catenin degradation in CRC cells. […] Because CBA-1 inhibited Wnt signaling in CRC cells, it was reasonable to assume that it inhibited Wnt signaling downstream of β-catenin, most likely by blocking β-catenin activity in the nucleus. Consequently, the present inventors hypothesized that CBA-1 inhibited Wnt signaling epigenetically by altering chromatin remodeling, and they probed the effects of CBA-1 on histone methylation in CRC cells.

Sequence of Jarid1B (KDM5B) (Q9UGL1 whole entry): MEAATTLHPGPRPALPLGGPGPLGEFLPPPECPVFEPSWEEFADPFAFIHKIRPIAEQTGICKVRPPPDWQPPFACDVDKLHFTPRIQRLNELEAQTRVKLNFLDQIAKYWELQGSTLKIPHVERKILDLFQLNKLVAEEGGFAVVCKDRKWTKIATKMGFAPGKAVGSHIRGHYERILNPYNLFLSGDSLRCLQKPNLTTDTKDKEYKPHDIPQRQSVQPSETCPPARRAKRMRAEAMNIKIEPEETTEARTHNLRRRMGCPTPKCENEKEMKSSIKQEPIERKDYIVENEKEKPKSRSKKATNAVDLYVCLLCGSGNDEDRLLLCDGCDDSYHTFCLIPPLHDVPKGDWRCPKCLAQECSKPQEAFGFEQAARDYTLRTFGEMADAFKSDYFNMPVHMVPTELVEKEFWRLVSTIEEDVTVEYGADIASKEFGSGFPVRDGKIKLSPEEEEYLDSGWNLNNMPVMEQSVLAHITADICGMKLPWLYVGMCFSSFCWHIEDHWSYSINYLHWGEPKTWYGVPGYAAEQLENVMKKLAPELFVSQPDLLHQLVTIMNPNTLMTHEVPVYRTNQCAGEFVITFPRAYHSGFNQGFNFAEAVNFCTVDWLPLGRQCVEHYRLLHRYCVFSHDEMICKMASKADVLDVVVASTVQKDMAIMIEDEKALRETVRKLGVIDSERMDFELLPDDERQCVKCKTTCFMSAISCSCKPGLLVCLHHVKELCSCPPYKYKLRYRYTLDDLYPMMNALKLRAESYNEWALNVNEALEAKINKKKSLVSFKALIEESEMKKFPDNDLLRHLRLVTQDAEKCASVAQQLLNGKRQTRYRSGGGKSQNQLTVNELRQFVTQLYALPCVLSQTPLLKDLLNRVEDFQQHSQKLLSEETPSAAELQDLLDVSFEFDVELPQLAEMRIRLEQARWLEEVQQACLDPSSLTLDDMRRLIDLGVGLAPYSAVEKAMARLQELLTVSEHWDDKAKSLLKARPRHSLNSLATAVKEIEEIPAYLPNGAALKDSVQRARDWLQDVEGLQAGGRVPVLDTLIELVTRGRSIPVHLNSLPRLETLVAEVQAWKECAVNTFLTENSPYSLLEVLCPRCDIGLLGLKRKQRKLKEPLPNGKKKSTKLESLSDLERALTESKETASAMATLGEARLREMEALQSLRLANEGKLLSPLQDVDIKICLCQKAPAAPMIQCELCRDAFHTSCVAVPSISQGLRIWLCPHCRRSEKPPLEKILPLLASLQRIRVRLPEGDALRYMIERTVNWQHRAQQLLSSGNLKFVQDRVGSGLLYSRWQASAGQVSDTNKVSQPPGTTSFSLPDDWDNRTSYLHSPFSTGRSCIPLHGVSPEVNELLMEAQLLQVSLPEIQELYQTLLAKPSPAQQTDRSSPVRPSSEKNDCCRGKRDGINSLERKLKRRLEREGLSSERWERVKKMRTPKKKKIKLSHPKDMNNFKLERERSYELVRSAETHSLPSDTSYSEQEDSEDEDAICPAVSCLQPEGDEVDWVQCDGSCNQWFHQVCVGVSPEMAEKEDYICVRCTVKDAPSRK

In general, inhibition refers to how much of the control response was suppressed. For the compound `CCCC(=O)NC(c1ccc(N(CC)CC)cc1)c1cc(Cl)c2cccnc2c1O` (stereo not shown) [58B1], in test [1], the “H3K4me^2” value is on record as “not”, the “H3K9Me^3” value is listed as “induced”, the “H3K9 dimethylation (H3K9Me^2)” value is given as “strongly induced” and the “H3K27Me^3” value is recorded as “induced”. The compound also had an inhibition at 10 µM on Jarid1B (KDM5B) of 95%. Further, at FBXL10 (KDM2B), the inhibition at 10 µM came out at 30%. For the same compound, the “proliferation of CRC cell lines” value with SW620 was “inhibited proliferation”. This compound displayed an inhibition in the test on Wnt signaling (Homo sapiens, HEK-293T, Table 1, HEK293T TOPFlash, 25 mM LiCl after 6 h) of 95%. Moreover, the inhibition at 1 µM in the test on Wnt signaling (Homo sapiens, HEK-293T, Table 3, Wnt reporter assay at 1 μM, read-out: Percent inhibition at 1 μM) amounted to 90.9%. Also, the “Wnt signaling in TOPFlash reporter assay” value in the test with Wnt signaling (screening of in house libraries) was “inhibited”. In test [2], the “H3K4Me^2” value is “no effect”, the “levels of H3K9Me^2” value is listed as “significantly increased” and the “levels of H3K9Me^3” value is listed as “significantly increased”.
